# Measurements: patent publication US12077503B2, “Substituted cyclic amides and their use as herbicides” (FMC CORPORATION, priority 2015, dated 2024)
# Key:
# Format in all cases: in vivo
# [1] = tested on: ragweed (common ragweed, Ambrosia elatior); assay: Test A preemergence; details: Ambrosia artemisiifolia, pre-emergence, 240 h; for pest or weed control at 125 g/ha: 125 g ai/ha, Preemergence, visual injury rating after approximately 10 d, read-out: Ragweed plant response rating (0 to 100 scale, 0 is no effect, 100 is complete control); for pest or weed control at 500 g/ha: 500 g ai/ha, preemergence, visual injury rating about 10 d after treatment, 0 to 100 scale (0 no effect, 100 complete control), read-out: Ragweed plant response rating
# Method in brief: (§1)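 Preemergence directed soil spray on seeded pots, or postemergence application to plants 2–10 cm, one- to two-leaf. Solvent mixture non-phytotoxic, with surfactant. Scored ~10 d later, visually, 0–100 vs untreated.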
# Kochia (Kochia scoparia) [2] = assay: Test A preemergence; details: Bassia scoparia, pre-emergence, 240 h; for pest or weed control at 125 g/ha: 125 g ai/ha, Preemergence, visual injury rating after approximately 10 d, read-out: Kochia plant response rating (0 to 100 scale, 0 is no effect, 100 is complete control); for pest or weed control at 500 g/ha: 500 g ai/ha, preemergence, visual injury rating about 10 d after treatment, 0 to 100 scale (0 no effect, 100 complete control), read-out: Kochia plant response rating
# Method in brief: as §1
# [3] = tested on: pigweed (Amaranthus retroflexus); assay: Test A preemergence; details: Amaranthus retroflexus, pre-emergence, 240 h; for pest or weed control at 125 g/ha: 125 g ai/ha, Preemergence, visual injury rating after approximately 10 d, read-out: Pigweed plant response rating (0 to 100 scale, 0 is no effect, 100 is complete control); for pest or weed control at 500 g/ha: 500 g ai/ha, preemergence, visual injury rating about 10 d after treatment, 0 to 100 scale (0 no effect, 100 complete control), read-out: Pigweed plant response rating
# [4] = tested on: barnyardgrass (Echinochloa crus-galli); assay: Test A preemergence; details: Echinochloa crus-galli, pre-emergence, 240 h; for pest or weed control at 125 g/ha: 125 g ai/ha, Preemergence, visual injury rating after approximately 10 d, read-out: Barnyardgrass plant response rating (0 to 100 scale, 0 is no effect, 100 is complete control); for pest or weed control at 500 g/ha: 500 g ai/ha, preemergence, visual injury rating about 10 d after treatment, 0 to 100 scale (0 no effect, 100 complete control), read-out: Barnyardgrass plant response rating
# Method in brief: as §1
# [5] = tested on: ryegrass, Italian (Italian ryegrass, Lolium multiflorum); assay: Test A preemergence; details: Lolium multiflorum, pre-emergence, 240 h; for pest or weed control at 125 g/ha: 125 g ai/ha, Preemergence, visual injury rating after approximately 10 d, read-out: Ryegrass, Italian plant response rating (0 to 100 scale, 0 is no effect, 100 is complete control); for pest or weed control at 500 g/ha: 500 g ai/ha, preemergence, visual injury rating about 10 d after treatment, 0 to 100 scale (0 no effect, 100 complete control), read-out: Ryegrass, Italian plant response rating
# Method in brief: as §1
# [6] = tested on: giant foxtail (Setaria faberii); assay: Test A preemergence; details: Setaria faberi, pre-emergence, 240 h; for pest or weed control at 125 g/ha: 125 g ai/ha, Preemergence, visual injury rating after approximately 10 d, read-out: Foxtail, Giant plant response rating (0 to 100 scale, 0 is no effect, 100 is complete control); for pest or weed control at 500 g/ha: 500 g ai/ha, preemergence, visual injury rating about 10 d after treatment, 0 to 100 scale (0 no effect, 100 complete control), read-out: Foxtail, Giant plant response rating
# Method in brief: as §1
# rice (Oryra sativa) = assay: Test B flooded paddy test; details: Oryza sativa, Flood, 250 g ai/ha; scale of 0 to 100 where 0 is no effect and 100 is complete control; read-out: Rice plant response rating
# Method in brief: (§2)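 2-leaf plants; pots flooded 3 cm over soil; cpd added to paddy water; depth held; greenhouse 13–15 d; visual rating vs controls, 0 = no effect, 100 = complete control.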
# [7] = tested on: barnyardgrass (Echinochloa crus-galli); assay: Test B flooded paddy test; details: Echinochloa crus-galli, Flood, 250 g ai/ha; scale of 0 to 100 where 0 is no effect and 100 is complete control; read-out: Barnyardgrass plant response rating
# Method in brief: as §2
# [8] = tested on: sedge, umbrella (small-flower umbrella sedge, Cyperus difformis); assay: Test B flooded paddy test; details: Cyperus difformis, 250 g ai/ha, Flood; 0 to 100 scale where 0 is no effect and 100 is complete control; read-out: Sedge, Umbrella plant response rating
# Method in brief: as §2
# [9] = tested on: ducksalad (Heteranthera limosa); assay: Test B flooded paddy test; details: Heteranthera limosa, Flood, 250 g ai/ha; scale of 0 to 100 where 0 is no effect and 100 is complete control; read-out: Ducksalad plant response rating
# Method in brief: as §2
# [10] = tested on: blackgrass (Alopecurus myosuroides); assay: Test A postemergence; details: Alopecurus myosuroides, post-emergence, 240 h, 125 g ai/ha, Postemergence; visual injury after approximately 10 d; 0 to 100 scale where 0 is no effect and 100 is complete control; read-out: Plant response rating, Blackgrass
# Method in brief: as §1
# [11] = tested on: ragweed (common ragweed, Ambrosia elatior); assay: Test A postemergence; details: Ambrosia artemisiifolia, post-emergence, 240 h, 125 g ai/ha, Postemergence; visual injury after approximately 10 d; 0 to 100 scale where 0 is no effect and 100 is complete control; read-out: Plant response rating, Ragweed
# Method in brief: as §1
# Kochia (Kochia scoparia) [12] = assay: Test A postemergence; details: Bassia scoparia, post-emergence, 240 h, 125 g ai/ha, Postemergence; visual injury after approximately 10 d; 0 to 100 scale where 0 is no effect and 100 is complete control; read-out: Plant response rating, Kochia
# Method in brief: as §1
# corn (Zea mays) = assay: Test A postemergence; details: Zea mays, post-emergence, 240 h, 125 g ai/ha, Postemergence; visual injury after approximately 10 d; 0 to 100 scale where 0 is no effect and 100 is complete control
# Method in brief: as §1
# [13] = tested on: pigweed (Amaranthus retroflexus); assay: Test A postemergence; details: Amaranthus retroflexus, post-emergence, 240 h, 125 g ai/ha, Postemergence; visual injury after approximately 10 d; 0 to 100 scale where 0 is no effect and 100 is complete control; read-out: Plant response rating, Pigweed
# Method in brief: as §1
# [14] = tested on: Galium (catchweed bedstraw, Galium aparine); assay: Test A postemergence; details: Galium, post-emergence, 240 h, 125 g ai/ha, Postemergence; visual injury after approximately 10 d; 0 to 100 scale where 0 is no effect and 100 is complete control; read-out: Plant response rating, Galium
# Method in brief: as §1
# [15] = tested on: barnyardgrass (Echinochloa crus-galli); assay: Test A postemergence; details: Echinochloa crus-galli, post-emergence, 240 h, 125 g ai/ha, Postemergence; visual injury after approximately 10 d; 0 to 100 scale where 0 is no effect and 100 is complete control; read-out: Plant response rating, Barnyardgrass
# Method in brief: as §1
# [16] = tested on: wheat (Triticum aestivum); assay: Test A postemergence; details: Triticum aestivum, post-emergence, 240 h, 125 g ai/ha, Postemergence; visual injury after approximately 10 d; 0 to 100 scale where 0 is no effect and 100 is complete control; read-out: Plant response rating, Wheat
# Method in brief: as §1
# [17] = tested on: ryegrass, Italian (Italian ryegrass, Lolium multiflorum); assay: Test A postemergence; details: Lolium multiflorum, post-emergence, 240 h, 125 g ai/ha, Postemergence; visual injury after approximately 10 d; 0 to 100 scale where 0 is no effect and 100 is complete control; read-out: Plant response rating, Ryegrass, Italian
# Method in brief: as §1
# [18] = tested on: giant foxtail (Setaria faberii); assay: Test A postemergence; details: Setaria faberi, post-emergence, 240 h, 125 g ai/ha, Postemergence; visual injury after approximately 10 d; 0 to 100 scale where 0 is no effect and 100 is complete control; read-out: Plant response rating, Foxtail, Giant
# Method in brief: as §1
Compound,pest or weed control at 125 g/ha [1],pest or weed control at 500 g/ha [1],pest or weed control at 125 g/ha (Kochia (Kochia scoparia) [2]),pest or weed control at 500 g/ha (Kochia (Kochia scoparia) [2]),pest or weed control at 125 g/ha [3],pest or weed control at 500 g/ha [3],pest or weed control at 125 g/ha [4],pest or weed control at 500 g/ha [4],pest or weed control at 125 g/ha [5],pest or weed control at 500 g/ha [5],pest or weed control at 125 g/ha [6],pest or weed control at 500 g/ha [6],pest or weed control at 250 g/ha (rice (Oryra sativa)),pest or weed control at 250 g/ha [7],pest or weed control at 250 g/ha [8],pest or weed control at 250 g/ha [9],pest or weed control at 125 g/ha [10],pest or weed control at 125 g/ha [11],pest or weed control at 125 g/ha (Kochia (Kochia scoparia) [12]),"Corn plant response rating (crop injury, 0 = no effect, 100 = complete kill) at 125 g/ha (corn (Zea mays))",other results
CN1C[C@H](c2cc(F)cc(F)c2)[C@@H](C(=O)Nc2ccc(O)cc2F)C1=O [Compound 985],0%,0%,0%,0%,0%,0%,0%,0%,0%,0%,0%,0%,0%,0%,0%,40%,0%,0%,0%,0%,pest or weed control at 125 g/ha [13]: 0%; pest or weed control at 125 g/ha [14]: 0%; pest or weed control at 125 g/ha [15]: 0%; plant injury at 125 g/ha [16]: 0%; pest or weed control at 125 g/ha [17]: 0%; pest or weed control at 125 g/ha [18]: 0%
COc1ccc([C@H]2CN(C)C(=O)[C@@H]2C(=O)Nc2cccc(F)c2F)cc1C(F)(F)F [Compound 986],50%,70%,30%,70%,60%,70%,90%,90%,60%,80%,100%,100%,20%,55%,0%,75%,40%,0%,30%,80%,pest or weed control at 125 g/ha [13]: 0%; pest or weed control at 125 g/ha [14]: 30%; pest or weed control at 125 g/ha [15]: 80%; plant injury at 125 g/ha [16]: 20%; pest or weed control at 125 g/ha [17]: 30%; pest or weed control at 125 g/ha [18]: 90%
CSc1ccccc1NC(=O)[C@H]1C(=O)N(C)C[C@@H]1c1ccc(F)c(Br)c1 [Compound 990],50%,80%,70%,90%,40%,80%,100%,100%,0%,60%,100%,100%,55%,50%,0%,100%,0%,0%,40%,40%,pest or weed control at 125 g/ha [13]: 30%; pest or weed control at 125 g/ha [14]: 60%; pest or weed control at 125 g/ha [15]: 90%; plant injury at 125 g/ha [16]: 0%; pest or weed control at 125 g/ha [17]: 20%; pest or weed control at 125 g/ha [18]: 80%
